Read-outs that look alike come from different tables or passages of the source.
Columns and labels:
Assay type in all cases: cell-based
[1] = biological target: T1, Toll-like receptor 4 (TLR4) (Homo sapiens, UniProt O00206); experiment: TLR4 activity: NF-κB-inducible SEAP reporter in LPS-stimulated TLR4-expressing HEK293 cells; settings: for inhibition at 100 µM: Test Con. 100 μM; for inhibition at 100 µM / inhibition at 10 µM / inhibition at 20 µM: LPS 10 ng/ml, 16-24 hours, HEK293 cells expressing TLR4, read-out: TLR-4 inhibition (%) mean; for activity towards TLR-4 (in words): summary of Table 1 (10, 20 or 100 μM); for inhibition at 10 µM: Test Con. 10 μM; for inhibition at 20 µM: Test Con. 20 μM
T1 construct: expressed in transfected cells; host or cells: HEK293 cells engineered to express TLR4
T1 sequence (O00206 24-839, species assumed): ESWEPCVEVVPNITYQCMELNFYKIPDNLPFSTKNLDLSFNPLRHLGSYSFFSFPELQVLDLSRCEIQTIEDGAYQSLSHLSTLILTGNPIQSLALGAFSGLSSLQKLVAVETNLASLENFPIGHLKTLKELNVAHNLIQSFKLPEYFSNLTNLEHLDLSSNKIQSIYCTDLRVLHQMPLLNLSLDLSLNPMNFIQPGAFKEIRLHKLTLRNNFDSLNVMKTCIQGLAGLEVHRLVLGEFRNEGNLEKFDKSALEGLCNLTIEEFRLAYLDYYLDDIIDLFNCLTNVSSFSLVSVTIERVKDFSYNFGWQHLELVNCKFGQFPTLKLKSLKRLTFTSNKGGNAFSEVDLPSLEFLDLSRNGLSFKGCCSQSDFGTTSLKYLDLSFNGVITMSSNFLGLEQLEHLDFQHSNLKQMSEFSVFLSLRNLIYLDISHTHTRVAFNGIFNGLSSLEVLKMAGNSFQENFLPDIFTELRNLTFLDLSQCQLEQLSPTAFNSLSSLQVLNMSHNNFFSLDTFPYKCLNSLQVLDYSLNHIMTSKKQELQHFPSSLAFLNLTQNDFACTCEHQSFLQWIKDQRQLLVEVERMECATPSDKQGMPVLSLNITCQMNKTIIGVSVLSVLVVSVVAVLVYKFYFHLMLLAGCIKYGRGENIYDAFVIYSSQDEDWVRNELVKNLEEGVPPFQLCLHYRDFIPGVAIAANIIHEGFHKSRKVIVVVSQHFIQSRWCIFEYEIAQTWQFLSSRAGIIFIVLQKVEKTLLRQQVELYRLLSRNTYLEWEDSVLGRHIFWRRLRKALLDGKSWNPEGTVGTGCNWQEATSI
T1 sequence (Q9Y6Y9 17-160 partner limits assumed, species assumed): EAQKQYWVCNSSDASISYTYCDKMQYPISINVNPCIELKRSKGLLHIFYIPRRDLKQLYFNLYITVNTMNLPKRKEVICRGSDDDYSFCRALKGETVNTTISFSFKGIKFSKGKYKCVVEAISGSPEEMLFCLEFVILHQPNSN
Protocol: Stimulation of the Toll-like receptor 4 (TLR4) was determined by assessing activation of the transcription factor NF-κB in HEK293 cells that were engineered to express TLR4. Assessment of TLR4 stimulation was based on the use of an NE-κB-inducible secreted alkaline phosphatase (SEAP) reporter system in which the SEAP reporter was under the control of a promoter inducible by NF-κB. Thus, the degree of activation of TLR4 can be indirectly quantified spectrophotometrically by measuring the amount of the SEAP reporter that is produced.
The TLR4-expressing cells were plated in HEK-Blue Detection (Invivogen, San Diego, Calif.) medium in a 96-well plate (25,000-50,000 cells/well). The cells were stimulated with lipopolysaccharides (LPS) alone or in combination with the compound of Example 1. Cell culture without LPS and the compound of Example 1 was defined as baseline control. To test whether the compound of Example 1 could block that activation of the TLR4, the cells were treated with the designated compound (10, 20 or 100 μM) and LPS (final conc. 10 ng/ml/well). After an incubation period (16-24 hours) at 37° C. in a CO2 incubator, the signals of individual samples in 96-well plates were detected at O.D.650 nm with a Molecular Devices SpectraMax i3 Imaging Cytometer. The TLR4 activity was expressed in percentage of LPS alone-stimulated cells minus baseline control.

[2] = tested on: mTNF-α secretion from LPS-stimulated RAW264.7 monocytes; experiment: LPS induced mTNF-α release from RAW264.7 cells (ELISA); settings: Mus musculus
Protocol: To confirm whether the inhibitory effect of the selected compounds of example 2.1 (i.e., Compounds 12, 15, 19, 20, 22, 24, 28, 30, 32, 34, 36, 38, 40, 42, 44, 45, 49, 50, 52 and 70) translates to anti-inflammation, they were further tested to see if any of them may suppress mTNF-α secretion from lipopolysaccharide (LPS)-stimulated RAW264.7 monocytes.
To this purpose, RAW264.7 cells were seeded at 1.6×10^5 cells/well into 96-well culture plates. Test compounds (i.e., Compounds 12, 15, 19, 20, 22, 24, 28, 30, 32, 34, 36, 38, 40, 42, 44, 45, 49, 50, 52 and 70, respectively at 10 μM) were added into the culture plates in triplicate and co-cultured at 37° C. in 5% CO2 for 30 minutes. LPS (final conc. 10 ng/ml/well) was then added into the culture plates and the cells were incubated for another 4 hours. At the end of culture, the cultured media were harvested for mTNF-α quantification by ELISA with commercial assay kits (R&D Systems, Minneapolis, Minn.) following the manufacturer's protocol. Signals of the individual samples in 96-well plates were detected at O.D.450 nm/570 nm with a Molecular Devices SpectraMax i3 Imaging Cytometer. The mTNF-α activity was expressed in percentage of viable LPS-stimulated cells without test compound treatment.

HEK293 cells = experiment: Cell viability (MTT) of the TLR4-expressing HEK293 cells; settings: percentage of viable LPS-stimulated cells
Protocol: (§1) RAW264.7 cells (1.6×10^5 cells/well) or HEK 293 cells (2.5-5.0×10^4 cells/well) were seeded in 96-well plate overnight and treated with different compounds for 16-24 hours. Cells' growth were determined by MTT-based colorimetric assays. Viability of the test cells treated with vehicle (0.5% DMSO) only was defined as 100% viable. Survival of cells after treatment with DETDs was calculated using the following formula: viable cell number (%)=OD570 (treated cell culture)/OD570 (vehicle control)×100.
(§2) The cell viability assay was performed by the MTT method. Cells were incubated with 45 μl of 5 mg/ml MTT for 1 hour at 37° C., and 150 μl of DMSO was added at the end of culture to dissolve the crystals. The signals of individual samples in 96-well plates were detected at O.D.570 nm with a Molecular Devices SpectraMax i3 Imaging Cytometer. Cell viability was expressed in percentage of viable LPS-stimulated cells.

RAW264.7 cells = experiment: Cell viability (MTT) of RAW264.7 cells; settings: for Cell Viability (%) mean: Test Con. 10 μM, MTT, RAW264.7 cells, percentage of viable LPS-stimulated cells; for toxic activity toward RAW264.7 cells (in words): Table 2, 10 μM
Protocol: as §1
as §2, with “method, in which cells” for “method. Cells”

[3] = RAW264.7, Table 2, 10 μM, read-out: inhibition of LPS induced mTNF-α release from RAW264.7 cells
[4] = Test Con. 10 μM, LPS 10 ng/ml, 4 hours, RAW264.7 cells, read-out: mTNF-α inhibition (%) mean

Structure (SMILES) | inhibition at 100 µM [1] [%] | activity towards TLR-4 (in words) [1] | inhibition at 10 µM [1] [%] | inhibition at 10 µM [2, 3] [%] | inhibition at 10 µM [2, 4] [%] | Cell Viability (%) mean (HEK293 cells; Test Con. 10 μM) [%] | Cell Viability (%) mean (RAW264.7 cells) [%] | inhibition at 20 µM [1] [%] | Cell Viability (%) mean (HEK293 cells; Test Con. 20 μM) [%] | toxic activity toward RAW264.7 cells (in words) (RAW264.7 cells)
COC(=O)C1=CCN(CC(=O)Nc2ccc(F)cc2)CC1 [Compound 3] | 6.8 | mild or negligible activity |  |  |  |  |  |  |  | 
C=CC(=O)N1CCN(CC(=O)Nc2ccc(F)cc2)CC1 [Compound 6] | 17.8 | mild or negligible activity |  |  |  |  |  |  |  | 
C=CC(=O)N1CCCc2cccc(S(=O)(=O)Nc3ccc(F)cc3Cl)c21 [Compound 12] |  | strong antagonist | 98.9 | 85 to 100 | 100 | 72 | 25.5 |  |  | 
C/C=C/C(=O)N1CCCc2cccc(S(=O)(=O)Nc3ccc(F)cc3Cl)c21 [Compound 13] |  | mild or negligible activity |  |  |  |  |  | 10.9 | 86.6 | 
C=CC(=O)N1CCCc2cccc(S(=O)(=O)Nc3ccc(F)cc3F)c21 [Compound 15] |  | strong antagonist | 100 | 85 to 100 | 94.7 | 84.1 | 52.4 |  |  | 
O=S(=O)(Nc1ccc(F)cc1Cl)c1cccc2c1N(S(=O)(=O)CCl)CCC2 [Compound 16] |  | mild or negligible activity |  |  |  |  |  | 18 | 96.5 | 
C=CC(=O)N(c1ccc(F)cc1Cl)S(=O)(=O)c1ccccc1 [Compound 19] |  | strong antagonist | 100 | 85 to 100 | 96.1 | 80 | 38.1 |  |  | 
C=C(C)C(=O)N(c1ccc(F)cc1Cl)S(=O)(=O)c1ccccc1 [Compound 20] |  | moderate inhibitory activity | 60.1 | ~70 | 70.9 | 90.4 | 100.0 |  |  | negligible to no toxic activity
C=CC(=O)N(c1ccc(F)cc1Cl)S(=O)(=O)c1ccccc1[N+](=O)[O-] [Compound 22] |  | moderate inhibitory activity | 63 | ~40 | 45.7 | 109.9 | 96.4 |  |  | negligible to no toxic activity
C=CC(=O)N(c1ccc(F)cc1Cl)S(=O)(=O)c1ccccc1C(=O)OC [Compound 24] |  | strong antagonist | 100 | 85 to 100 | 96 | 88.5 | 54.5 |  |  | 
C=CC(=O)N(c1ccc(F)cc1Cl)S(=O)(=O)c1ccccc1OC(F)(F)F [Compound 26] |  | mild or negligible activity | 10.7 |  |  | 86.8 |  |  |  | 
C=CC(=O)N(c1ccc(F)cc1Cl)S(=O)(=O)c1ccc(F)cc1Cl [Compound 30] |  | strong antagonist | 94.8 | 85 to 100 | 82.9 | 94.0 | 99.7 |  |  | negligible to no toxic activity
C=CC(=O)N(c1ccc(F)cc1Cl)S(=O)(=O)c1ccccc1S(C)(=O)=O [Compound 32] |  | strong antagonist | 100 | 85 to 100 | 97.5 | 84.5 | 48.3 |  |  | 
C=CC(=O)N(c1ccc(F)cc1Cl)S(=O)(=O)c1c(C)noc1C [Compound 34] |  | strong antagonist | 100 | 85 to 100 | 98.5 | 63.0 | 53.9 |  |  | 
C=CC(=O)N(c1ccc(F)cc1Cl)S(=O)(=O)Cc1ccccc1 [Compound 36] |  | moderate inhibitory activity | 67.3 | ~13 | 13 | 107.0 | 102.8 |  |  | negligible to no toxic activity
C=CC(=O)N(c1ccc(F)cc1Cl)S(=O)(=O)N1CCOC1=O [Compound 38] |  | strong antagonist | 100 | 85 to 100 | 97.1 | 61.6 | 48.0 |  |  | 
C=CC(=O)N(C1CC1)S(=O)(=O)c1ccc(F)cc1Cl [Compound 40] |  | strong antagonist | 100 | 85 to 100 | 99.7 | 85.5 | 93.5 |  |  | negligible to no toxic activity
C=CC(=O)N(c1ccc(F)cc1Cl)S(=O)(=O)c1c(C)oc(C)c1C(=O)OC [Compound 42] |  | strong antagonist | 100 | 85 to 100 | 98.6 | 72.4 | 27.8 |  |  | 
C=CC(=O)Nc1ccccc1S(=O)(=O)Nc1ccc(F)cc1Cl [Compound 44] |  | strong antagonist | 100 | 85 to 100 | 94.1 | 81.4 | 96.1 |  |  | negligible to no toxic activity
C=CC(=O)N1CCCC[C@H]1C(=O)N(C)c1ccc(F)cc1Cl [Compound 57] |  | mild or negligible activity | 17.5 |  |  | 95.9 |  |  |  | 
C=CC(=O)N1CCC[C@H]1C(=O)Nc1ccc(F)cc1Cl [Compound 61] |  | mild or negligible activity | 3.7 |  |  | 93.4 |  |  |  | 
C=CC(=O)N1CCC[C@@H]1C(=O)Nc1ccc(F)cc1Cl [Compound 65] |  | mild or negligible activity | 15.8 |  |  | 100.5 |  |  |  | 

From patent US20200247761A1, “SULFONAMIDE OR AMIDE COMPOUNDS, COMPOSITIONS AND METHODS FOR THE PROPHYLAXIS AND/OR TREATMENT OF AUTOIMMUNE, INFLAMMATION OR INFECTION RELATED DISORDERS” (TAIWANJ PHARMACEUTICALS CO., LTD, priority 2017, published 2020)
